Reference: patent publication US20230241229A1, “A SAPOGENIN POLYETHYLENE GLYCOL ESTER COMPLEX OF FORMULA-I, A COMPOSITION, PROCESS OF PREPARATION, AND APPLICATIONS THEREOF” (PHYTOSOL INDIA PRIVATE LIMITED, priority 2020, published 2023)

Assay: Solubility of the compositions by adding water
Assay type: physicochemical
Conditions: component weight 100 mg
Protocol: Solubility of the Compositions I, II and III are determined by adding water to the composition and control curcumin (without the Diosgenin polyethylene glycol succinate).

## COc1cc(/C=C/C(=O)CC(=O)/C=C/c2ccc(O)c(OC)c2)ccc1O [Control, Curcumin]
  Water in ml require to solubilize: >1000 mL
